Results from US7311918B2, “Rotavirus subunit vaccine” (Children's Hospital Medical Center, priority 1998, dated 2007).
Values joined by “and” are separate entries in the source; they are usually repeats but may differ in a detail not shown here. Equal values may be shown once. “Also recorded” adds a separate entry of the source.

Test system: EDIM virus (murine rotavirus)
Assay type: in vivo, BALB/c mice
Conditions: BALB/c mice, MBP::VP6 given intranasally with the adjuvant named

Q: QS-21 [reference compound] was tested. Which Reduction in shedding did it give?
A: Its Reduction in shedding is 43%.

Same assay, conditions: BALB/c mice, MBP::VP6 given orally with the adjuvant named

Q: How did the Reduction in shedding turn out when QS-21 [reference compound] was run?
A: The Reduction in shedding was 59%.

Same assay, conditions: mouse, in vivo

Q: RLSFQLMRPPNMTP [Peptide 6-14] was tested. Which “Mean reduction in rotavirus shedding (protection)” value (shortened to “Mean reduction”) did it give?
A: The value was “comparable protection to that of peptide 6; also recorded: nearly complete protection”.

Q: With “Peptide 3: one of 11 overlapping synthetic peptides (18 to 31 amino acids) of the CD region of VP6, Table 10 (FSFPRVINSADGATTWYFNPVILRPNNVEV; Rotavirus VP6 fragment)” as the substance, how does the “% Reduction in shedding” value read?
A: The value was 57%.

Q: What about the “Mean reduction” value of the same substance?
A: The value was 57%.

Q: And the “Shedding per mouse per day” value?
A: The value was 96.

Q: What about the “Shedding, Day 7” value of the same substance?
A: Its value is 0.

Q: “Peptide 10: one of 11 overlapping synthetic peptides (18 to 31 amino acids) of the CD region of VP6, Table 10 (QEYAIPVGPVFPPGMNWTDLITNYSPSRED; Rotavirus VP6 fragment)” was tested. Which “% Reduction in shedding” value did it give?
A: The value was 0%.

Q: And the “Mean reduction” value?
A: The value was “did not elicit protection”.

Q: What about the “Shedding per mouse per day” value of the same substance?
A: Its value is 1825.

Q: What about the “Shedding, Day 7” value of the same substance?
A: The value was 0.

Q: For “Peptide 5: one of 11 overlapping synthetic peptides (18 to 31 amino acids) of the CD region of VP6, Table 10 (NGQVINTYQARFGTIVARNFDTIRLSFQLM; Rotavirus VP6 fragment)”, which “% Reduction in shedding” value is on record?
A: The value was 0%.

Q: What about the “Mean reduction” value of the same substance?
A: Its value is “did not elicit protection”.

Q: And the “Shedding per mouse per day” value?
A: The value was 341.

Q: With “Peptide 7: one of 11 overlapping synthetic peptides (18 to 31 amino acids) of the CD region of VP6, Table 10 (MTPAVTALFPNAQPFEHHATVGLTLRIDSA; Rotavirus VP6 fragment)” as the substance, how does the “% Reduction in shedding” value read?
A: Its value is 18%.

Q: What about the “Mean reduction” value of the same substance?
A: The value was “did not elicit protection”.

Q: What about the “Shedding per mouse per day” value of the same substance?
A: The value was 185.

Q: Which “% Reduction in shedding” value does the source give for “Peptide 9: one of 11 overlapping synthetic peptides (18 to 31 amino acids) of the CD region of VP6, Table 10 (VLADASETMLANVTSVRQEYAI; Rotavirus VP6 fragment)” here?
A: Its value is 0%.

Q: What about the “Mean reduction” value of the same substance?
A: The value was “did not elicit protection”.

Q: What about the “Shedding per mouse per day” value of the same substance?
A: Its value is 275.

Q: For “Peptide 6: 25 mer synthetic peptide of the CD region of VP6 containing the 14-amino acid sequence RLSFQLMRPPNMTP, Table 10 (RNFDTIRLSFQLMRPPNMTPAVTAL; Rotavirus VP6 fragment)”, which “% Reduction in shedding” value is on record?
A: The value was 88%.

Q: And the “Mean reduction” value?
A: Its value is 88%.

Q: And the “Shedding per mouse per day” value?
A: The value was 27.

Q: What about the “Shedding, Day 7” value of the same substance?
A: Its value is 0.

Q: “2: one of 11 overlapping synthetic peptides (18 to 31 amino acids) of the CD region of VP6, Table 10 (PDAERFSFPRVINSADGA; Rotavirus VP6 fragment) [Peptide 2]” was tested. Which “Mean reduction” value did it give?
A: The value was 70%.

Q: Which “Mean reduction” value does the source give for “4: one of 11 overlapping synthetic peptides (18 to 31 amino acids) of the CD region of VP6, Table 10 (FNPVILRPNNVEVEFLLNGQVINTYQARF; Rotavirus VP6 fragment) [Peptide 4]” here?
A: Its value is 77%.

Q: For “Peptide 11: one of 11 overlapping synthetic peptides (18 to 31 amino acids) of the CD region of VP6, Table 10 (TDLITNYSPSREDNLQRVFTVASIRSMLVK; Rotavirus VP6 fragment)”, which “% Reduction in shedding” value is on record?
A: The value was 64%.

Q: And the “Mean reduction” value?
A: Its value is 64%.

Q: What about the “Shedding per mouse per day” value of the same substance?
A: The value was 80.

Q: And the “Shedding, Day 6” value?
A: Its value is 30 and 29 and 41 and 36 and 23.

Q: And the “Shedding, Day 7” value?
A: The value was 0.

Test system: rotavirus (EDIM viral lysate)
Assay type: in vivo, BALB/c mice
Conditions: mice immunized with MBP::VP6; intramuscularly with QS-21 versus intranasally with LT

Q: With QS-21 [reference compound] as the substance, how does the “Serum IgG response” value read?
A: The value was “greater IgG response”.
